Measured values from the NIST ThermoML archive (doi:10.1021/je800981d).

What was measured:
[1] = xn = mol fraction of the nth substance listed; conditions: 101 kPa, Liquid
[2] = refractive index (Na D-line) (dimensionless); xn = mol fraction of the nth substance listed; conditions: 298.15 K, 101 kPa, Liquid, Standard Abbe refractometry

CCOS(=O)(=O)[O-].CC[n+]1ccccc1 [1-ethylpyridinium ethyl sulfate] + CCCO
[1]
Conditions	mass density, 298.15 K [kg/m3]	mass density, 313.15 K [kg/m3]	mass density, 328.15 K [kg/m3]	speed of sound, 298.15 K [m/s]	speed of sound, 313.15 K [m/s]	speed of sound, 328.15 K [m/s]	viscosity, 298.15 K [mPa·s]	viscosity, 313.15 K [mPa·s]	viscosity, 328.15 K [mPa·s]
x2 = 0	1252	1242.1	1232.3	1711	1676	1641	126.3	57.6	38.6
x2 = 0.0814	1237.2	1227.4	1217.6	1689	1654	1619	95.2	48	32.49
x2 = 0.1994	1212.7	1202.7	1192.7	1649	1613	1578	62.7	34.23	23.31
x2 = 0.3084	1186.1	1176.1	1165.9	1608	1572	1537	43.6	25.21	17.27
x2 = 0.4035	1159	1148.5	1138.3	1565	1528	1493	30.03	18.31	12.21
x2 = 0.5077	1123.8	1113	1102.6	1516	1478	1440	20.12	12.91	8.898
x2 = 0.6013	1085.8	1074.8	1064.2	1466	1427	1388	13.68	9.161	6.523
x2 = 0.7016	1036.7	1025.2	1014.3	1409	1367	1327	8.84	6.131	4.494
x2 = 0.8004	976.9	965.3	954.1	1347	1304	1262	5.597	3.988	2.977
x2 = 0.9002	900.6	888.9	877.1	1279	1234	1189	3.483	2.507	1.874
x2 = 0.9521	852.4	840.3	828.1	1244	1195	1147	2.676	1.921	1.411

[2]
Conditions	refractive index
x2 = 0	1.50525
x2 = 0.0814	1.50137
x2 = 0.1994	1.49499
x2 = 0.3084	1.48804
x2 = 0.4035	1.48081
x2 = 0.5077	1.47142
x2 = 0.6013	1.46126
x2 = 0.7016	1.44802
x2 = 0.8004	1.43181
x2 = 0.9002	1.411
x2 = 0.9521	1.39773
